Tests used:
Assay type in all cases: in vivo, Sprague-Dawley rats
[1] = tested on: dry eye in the Alacrimal Rat Model; assay: Alacrimal rat dry eye model: clinical examination by biomicroscopy, corneal opacity score; details: for Corneal scores compared to sham: 100 μM topical 4 times a day, days 3 and 7
Protocol: (§1) Dry eye was induced in the left eye of Sprague-Dawley rats by removal of the extraorbital lacrimal gland. […] Topical administration of test compounds was initiated 2 weeks after surgery, given 4 times a day and continued for 24 days. Sham rats (n=6) were untreated. Alacrimal rats (n=6 each) were dosed bilaterally with 10 μL of phosphate buffered saline (PBS), or 100 μM of either of two MARCKS inhibitors: BIO-11006 [high molecular weight] or BIO-91201 [lower molecular weight]. The efficacy of these MARCKS inhibitor peptides was assessed via clinical examination using biomicroscopy and phenol red test (PRT) tear volume with the observers masked to the treatments. Examinations were at baseline, 2 weeks after surgery, and on days 1, 3, 7, 14, 21, and 24 after initiating dosing. Clinical scores for corneal opacity, vascularization, and corneal fluorescein (FL) retention were recorded at each examination.
Corneal scores were assessed as in the table below.

[2] = tested on: dry eye in the Alacrimal Rat Model; assay: Alacrimal rat dry eye model: corneal fluorescein (FL) retention score; details: 100 μM topical 4 times a day
Protocol: as §1
PRT was higher in MARCKs inhibitor-dosed groups compared to PBS groups on days 14, 21, and 24 after surgery (p<0.02; t test). Fluorescein retention score was measured as shown in the table below, and the scores and statistical analyses are provided in FIG. 2.
Fluorescein retention scores.

[3] = tested on: dry eye in the Alacrimal Rat Model; assay: Alacrimal rat dry eye model: phenol red test (PRT) tear volume; details: overall conclusion of the study; 100 μM topical
Protocol: as §1
FIG. 3 provides the results of the phenol red test (PRT), showing tear measurement in mm/20 s averaged for each group.

| Substance | Corneal scores compared to sham [1] | FL retention scores versus sham eyes ([2]; through day 14) | corneal fluorescein (FL) retention ([2]; versus PBS or BIO-11006 dosed eyes, p<0.02) | tear production [3] | corneal opacity scores ([1]; 100 μM, 10 μL topical 4 times a day for 24 days, relative to PBS and BIO-11006 dosed groups) | effect on indicators of dry eye disease including corneal scores and corneal fluorescein retention ([1]; overall conclusion of the study, 100 μM topical) |
| --- | --- | --- | --- | --- | --- | --- |
| BIO-11006: N-terminal acetylated peptide of SEQ ID NO 106 (GAQFSKTAAK), free C-terminus; MARCKS inhibitor, high molecular weight (Ac-GAQFSKTAAK-OH) | significantly elevated | – | – | – | – | – |
| Ac-AKGE-OH [BIO-91201] | no difference between sham and BIO-91201 | not significantly different than sham eyes | significantly lower FL retention than PBS or BIO-11006 dosed eyes | improvement in tear production | reduced corneal opacity scores relative to the PBS and BIO-11006 dosed groups | significant positive effect |

— patent US20250161403A1, “PEPTIDES AND METHODS OF USE THEREOF IN TREATING OCULAR DISORDERS” (Biomarck Pharmaceuticals, Ltd., priority 2022, published 2025)
